Laboratory results taken from patent US10441587B2, “Treatment of lung cancer with inhibitors of glutaminase” (Calithera Biosciences, Inc., priority 2015, dated 2019).

Key:
A549 (CALA) = experiment: Sensitivity of NSCLC cell line to CB-839; type: cell-based; details: KRAS G12S, no amp, EGFR wt, n 2
H2023 (CALA) = experiment: Sensitivity of NSCLC cell line to CB-839; type: cell-based; details: KRAS wt, no amp, EGFR wt, n 3
H1568 (CALA) = experiment: Sensitivity of NSCLC cell line to CB-839; type: cell-based; details: KRAS wt, no amp, EGFR wt, n 4
H358 (CALA) = experiment: Sensitivity of NSCLC cell line to CB-839; type: cell-based; details: KRAS G12C, no amp, EGFR wt, n 4
H2030 (CALA) = experiment: Sensitivity of NSCLC cell line to CB-839; type: cell-based; details: KRAS G12C, no amp, EGFR wt, n 3
H2122 (CALA) = experiment: Sensitivity of NSCLC cell line to CB-839; type: cell-based; details: KRAS G12C, no amp, EGFR wt, n 5
H2347 (CALA) = experiment: Sensitivity of NSCLC cell line to CB-839; type: cell-based; details: KRAS L19F, no amp, EGFR wt, n 3
H23 (CALA) = experiment: Sensitivity of NSCLC cell line to CB-839; type: cell-based; details: KRAS G12C, AMP, EGFR wt, n 4
H1703 (CALA) = experiment: Sensitivity of NSCLC cell line to CB-839; type: cell-based; details: KRAS wt, AMP, EGFR wt, n 4
HCC827 (CALA) = experiment: Sensitivity of NSCLC cell line to CB-839; type: cell-based; details: KRAS wt, no amp, EGFR exon 19 deletion, n 3
H441 (CALA) = experiment: Sensitivity of NSCLC cell line to CB-839; type: cell-based; details: KRAS G13V, AMP, EGFR wt, n 3
H661 (CALA) = experiment: Sensitivity of NSCLC cell line to CB-839; type: cell-based; details: KRAS wt, AMP, EGFR wt, n 3
H1437 (CALA) = experiment: Sensitivity of NSCLC cell line to CB-839; type: cell-based; details: KRAS wt, no amp, EGFR wt, n 3
H647 (CALA) = experiment: Sensitivity of NSCLC cell line to CB-839; type: cell-based; details: KRAS G13D, no amp, EGFR wt, n 3
H1650 (CALA) = experiment: Sensitivity of NSCLC cell line to CB-839; type: cell-based; details: KRAS wt, no amp, EGFR exon 19 deletion, n 1
H1975 (CALA) = experiment: Sensitivity of NSCLC cell line to CB-839; type: cell-based; details: KRAS wt, no amp, EGFR L858R/T790M, n 4
H226 (CALA) = experiment: Sensitivity of NSCLC cell line to CB-839; type: cell-based; details: KRAS wt, no amp, EGFR wt, n 4
H2073 (CALA) = experiment: Sensitivity of NSCLC cell line to CB-839; type: cell-based; details: KRAS wt, no amp, EGFR wt, n 3
H1563 (CALA) = experiment: Sensitivity of NSCLC cell line to CB-839; type: cell-based; details: KRAS wt, no amp, EGFR wt, n 4
H1299 (CALA) = experiment: Sensitivity of NSCLC cell line to CB-839; type: cell-based; details: KRAS wt, no amp, EGFR wt, n 3
H2085 (CALA) = experiment: Sensitivity of NSCLC cell line to CB-839; type: cell-based; details: KRAS wt, no amp, EGFR no data, n 3
H838 (CALA) = experiment: Sensitivity of NSCLC cell line to CB-839; type: cell-based; details: KRAS wt, AMP, EGFR wt, n 3
H1693 (CALA) = experiment: Sensitivity of NSCLC cell line to CB-839; type: cell-based; details: KRAS wt, no amp, EGFR wt, n 3
ChaGo-K1 (CALA) = experiment: Sensitivity of NSCLC cell line to CB-839; type: cell-based; details: KRAS wt, no amp, EGFR wt, n 3
[1] = tested on: H2122 lung adenocarcinoma xenograft; experiment: Lung adenocarcinoma xenograft efficacy study; type: in vivo; details: H2122 xenograft in scid/beige mice; 200 mg/kg orally BID for 23 days; vs vehicle
Experimental: Female scid/beige mice (n═20) age 6-8 weeks were implanted subcutaneously with 1×10^7 H2122 lung adenocarcinoma cells per mouse suspended in PBS. Mice were randomized into the following two groups of n=10 mice/group: 1) Vehicle control (25% Hydroxypropyl-β-cyclodextrin) and 2) Compound 670 dosed orally at 200 mg/kg (formulated at 20 mg/mL in 25% HP-β-CD). For both groups, dosing was initiated 24 hours post-implant and continued orally BID for 23 days. Tumors were measured with calipers three times per week and tumor volume calculated using the formula tumor volume (mm^3)=(a×b^2/2) where ‘b’ is the smallest diameter and ‘a’ is the largest perpendicular diameter. **P-value<0.01 (Two-sided T-test).

[2] = tested on: non-small cell lung cancer cell lines exhibiting a KRAS mutation; experiment: Sensitivity of non-small cell lung cancer cell lines by mutation status; type: cell-based; details: KRAS-mutant vs wild-type non-small cell lung cancer cell lines; arrested growth and/or cell death

O=C(Cc1cccc(OC(F)(F)F)c1)Nc1ccc(CCCCc2nnc(NC(=O)Cc3ccccn3)s2)nn1 [compound 670]
Sensitivity to CB-839 average (A549 (CALA)): −68.565 | Sensitivity to CB-839 average (H2023 (CALA)): −47 | Sensitivity to CB-839 average (H1568 (CALA)): −38 | Sensitivity to CB-839 average (H358 (CALA)): −34 | Sensitivity to CB-839 average (H2030 (CALA)): −30 | Sensitivity to CB-839 average (H2122 (CALA)): −28.637 | Sensitivity to CB-839 average (H2347 (CALA)): −14 | Sensitivity to CB-839 average (H23 (CALA)): −13 | Sensitivity to CB-839 average (H1703 (CALA)): −10 | Sensitivity to CB-839 average (HCC827 (CALA)): −9 | Sensitivity to CB-839 average (H441 (CALA)): −2.67 | Sensitivity to CB-839 average (H661 (CALA)): 1.33 | Sensitivity to CB-839 average (H1437 (CALA)): 8.33 | Sensitivity to CB-839 average (H647 (CALA)): 18.267 | Sensitivity to CB-839 average (H1650 (CALA)): 19 | Sensitivity to CB-839 average (H1975 (CALA)): 22.225 | Sensitivity to CB-839 average (H226 (CALA)): 38.75 | Sensitivity to CB-839 average (H2073 (CALA)): 57.67 | Sensitivity to CB-839 average (H1563 (CALA)): 61.5 | Sensitivity to CB-839 average (H1299 (CALA)): 68.67 | Sensitivity to CB-839 average (H2085 (CALA)): 80.667 | Sensitivity to CB-839 average (H838 (CALA)): 82 | Sensitivity to CB-839 average (H1693 (CALA)): 82.67 | Sensitivity to CB-839 average (ChaGo-K1 (CALA)): 86 | tumor size [1]: reduced tumor size | sensitivity to treatment versus wild-type cell lines [2]: more sensitive
